From patent publication US11077106B2, “Cancer treatment” (Janssen Pharmaceutica NV, priority 2017, dated 2021)
Like-named read-outs stand apart in the source and are kept apart here.

Assays:
[1] = test system: metastatic or surgically unresectable urothelial cancer harboring select FGFR genetic alterations
Experimental: Assessments of tumor responses as reported herein were performed according to Response Evaluation Criteria in Solid Tumors (RECIST) version 1.1.
Included patients were adults with measurable urothelial cancer per Response Evaluation Criteria in Solid Tumors version 1.1.
Patients were required to have at least 1 FGFR2/FGFR3 mutation or fusion per central lab testing of RNA from formalin-fixed, paraffin-embedded tumor samples, using a custom assay.
Patients had progressed during or following at least 1 line of prior systemic chemotherapy or less than 12 months of neoadjuvant or adjuvant chemotherapy.
The primary end point of this ongoing study is Objective Response Rate to the selected regimen (Regimen 3).
Secondary end points include progression-free survival (PFS), duration of response (DoR), Overall Survival, safety, predictive biomarker evaluation, and pharmacokinetics.
Patients were assessed for efficacy using radiographic imaging performed within 30 days of screening, once every 6 weeks for the first 3 months, once every 12 weeks for the next 9 months, then once every 4 to 6 months until disease progression. Tumor responses were assessed by investigators according to RECIST version 1.1 (Eisenhauer E A et al., Eur J Cancer, 2009, 45(2), 228-247).

[2] = test system: subjects with metastatic or surgically unresectable urothelial cancer
Experimental: The study comprises a Screening Phase (molecular screening at any time prior to first dose and study screening within 30 days of first dose), a treatment phase, and a post-treatment follow-up phase. The treatment phase comprises the period from first dose until the end-of-treatment visit. The follow-up phase will extend until the subject has died, withdraws consent, is lost to follow-up, or the end of study, whichever comes first. Study treatment is administered on 28-day cycles. Prior to interim analysis 1, there were 2 treatment regimens.
Safety was assessed continuously by the investigator and based on medical review of AE reports and the results of vital sign measurements, physical examinations, clinical laboratory tests, ECOG performance status, and other safety evaluations.

[3] = Regimen 1, 10 mg intermittent dose (n = 33)
[4] = Regimen 2, 6 mg continuous dose (n = 78)
[5] = Regimen 3, 8 mg continuous dose (n = 59)
[6] = Any grade, Regimen 2, 6 mg continuous dose (n = 78)
[7] = Any grade, Regimen 3, 8 mg continuous dose (n = 96)
[8] = Grade ≥ 3, Regimen 1, 10 mg intermittent dose (n = 33)
[9] = Grade ≥ 3, Regimen 2, 6 mg continuous dose (n = 78)
[10] = Grade ≥ 3, Regimen 3, 8 mg continuous dose (n = 96)

SMILES: COc1cc(OC)cc(N(CCNC(C)C)c2ccc3ncc(-c4cnn(C)c4)nc3c2)c1 [erdafitinib, N-(3,5-dimethoxyphenyl)-N′-(1-methylethyl)-N-[3-(1-methyl-1H-pyrazol-4-y)quinoxalin-6-yl]ethane-1,2-diamine]
- patients with reduction in the sum of target lesion diameters ([1]; 8 mg/d continuous erdafitinib (Regimen 3), 44/59 patients): 75%
- Complete response [1, 3]: 2 (6) n (%)
- Disease control rate, confirmed, n (%) [1, 3]: 24 (73) n (%)
- ORR, confirmed, n (%) [1, 3]: 8 (24) n (%)
- Partial response [1, 3]: 6 (18) n (%)
- Progression-free survival, median, months [1, 3]: 4.0 months
- Stable disease [1, 3]: 16 (49) n (%)
- Complete response [1, 4]: 2 (3) n (%)
- Disease control rate, confirmed, n (%) [1, 4]: 57 (73) n (%)
- ORR, confirmed, n (%) [1, 4]: 27 (35) n (%)
- Partial response [1, 4]: 25 (32) n (%)
- Progression-free survival, median, months [1, 4]: 5.1 months
- Stable disease [1, 4]: 30 (39) n (%)
- Complete response [1, 5]: 3 (5) n (%)
- Disease control rate, confirmed, n (%) [1, 5]: 48 (81) n (%)
- ORR, confirmed, n (%) [1, 5]: 25 (42) n (%)
- Partial response [1, 5]: 22 (37) n (%)
- Progression-free survival, median, months [1, 5]: 5.6 months
- Stable disease [1, 5]: 23 (39) n (%)
- Median Progression Free Survival ([1]; across all dose regimens): 5.1 months
- confirmed Objective Response Rate ([1]; across all dose regimens (n = 170), 95% CI, 28%-43%): 35%
- confirmed disease control rate ([1]; among all patients (n = 170)): 76%
- response to treatment in relation to number of prior lines of treatment ([1]; chemo-naïve, one prior line, or two or more prior lines of chemotherapy): independent of the number of prior lines treatment
- median time to response ([1]; subset of 59 patients on Regimen 3): 1.41 months
- TRAE: Alopecia [2, 6]: 7 (9) n (%)
- TRAE: Asthenia [2, 6]: 12 (15) n (%)
- TRAE: Decreased appetite [2, 6]: 18 (23) n (%)
- TRAE: Diarrhea [2, 6]: 34 (44) n (%)
- TRAE: Dry eye [2, 6]: 2 (3) n (%)
- TRAE: Dry mouth [2, 6]: 31 (40) n (%)
- TRAE: Dry skin [2, 6]: 17 (22) n (%)
- TRAE: Dysgeusia [2, 6]: 10 (13) n (%)
- TRAE: Fatigue [2, 6]: 14 (18) n (%)
- TRAE: Hyperphosphatemia [2, 6]: 48 (62) n (%)
- TRAE: Lacrimation increased [2, 6]: 11 (14) n (%)
- TRAE: Nail dystrophy [2, 6]: 7 (9) n (%)
- TRAE: Onycholysis [2, 6]: 13 (17) n (%)
- TRAE: Palmar-plantar erythrodysaesthesia syndrome [2, 6]: 12 (15) n (%)
- TRAE: Paronychia [2, 6]: 11 (14) n (%)
- TRAE: Stomatitis [2, 6]: 32 (41) n (%)
- TRAE: Vision blurred [2, 6]: 5 (6) n (%)
- TRAE: Alopecia [2, 7]: 22 (23) n (%)
- TRAE: Asthenia [2, 7]: 13 (14) n (%)
- TRAE: Decreased appetite [2, 7]: 23 (24) n (%)
- TRAE: Diarrhea [2, 7]: 40 (42) n (%)
- TRAE: Dry eye [2, 7]: 17 (18) n (%)
- TRAE: Dry mouth [2, 7]: 40 (42) n (%)
- TRAE: Dry skin [2, 7]: 26 (27) n (%)
- TRAE: Dysgeusia [2, 7]: 32 (33) n (%)
- TRAE: Fatigue [2, 7]: 19 (20) n (%)
- TRAE: Hyperphosphatemia [2, 7]: 66 (69) n (%)
- TRAE: Lacrimation increased [2, 7]: 8 (8) n (%)
- TRAE: Nail dystrophy [2, 7]: 12 (13) n (%)
- TRAE: Onycholysis [2, 7]: 10 (10) n (%)
- TRAE: Palmar-plantar erythrodysaesthesia syndrome [2, 7]: 15 (16) n (%)
- TRAE: Paronychia [2, 7]: 14 (15) n (%)
- TRAE: Stomatitis [2, 7]: 45 (47) n (%)
- TRAE: Vision blurred [2, 7]: 15 (16) n (%)
- TRAE: Alopecia [2, 8]: 0 n (%)
- TRAE: Asthenia [2, 8]: 2 (6) n (%)
- TRAE: Decreased appetite [2, 8]: 0 n (%)
- TRAE: Diarrhea [2, 8]: 1 (3) n (%)
- TRAE: Dry eye [2, 8]: 0 n (%)
- TRAE: Dry mouth [2, 8]: 0 n (%)
- TRAE: Dry skin [2, 8]: 0 n (%)
- TRAE: Dysgeusia [2, 8]: 0 n (%)
- TRAE: Fatigue [2, 8]: 0 n (%)
- TRAE: Hyperphosphatemia [2, 8]: 0 n (%)
- TRAE: Lacrimation increased [2, 8]: 0 n (%)
- TRAE: Nail dystrophy [2, 8]: 0 n (%)
- TRAE: Onycholysis [2, 8]: 0 n (%)
- TRAE: Palmar-plantar erythrodysaesthesia syndrome [2, 8]: 0 n (%)
- TRAE: Paronychia [2, 8]: 0 n (%)
- TRAE: Stomatitis [2, 8]: 1 (3) n (%)
- TRAE: Vision blurred [2, 8]: 0 n (%)
- TRAE: Alopecia [2, 9]: 0 n (%)
- TRAE: Asthenia [2, 9]: 4 (5) n (%)
- TRAE: Decreased appetite [2, 9]: 2 (3) n (%)
- TRAE: Diarrhea [2, 9]: 0 n (%)
- TRAE: Dry eye [2, 9]: 1 (1) n (%)
- TRAE: Dry mouth [2, 9]: 2 (3) n (%)
- TRAE: Dry skin [2, 9]: 0 n (%)
- TRAE: Dysgeusia [2, 9]: 0 n (%)
- TRAE: Fatigue [2, 9]: 1 (1) n (%)
- TRAE: Hyperphosphatemia [2, 9]: 0 n (%)
- TRAE: Lacrimation increased [2, 9]: 0 n (%)
- TRAE: Nail dystrophy [2, 9]: 0 n (%)
- TRAE: Onycholysis [2, 9]: 5 (6) n (%)
- TRAE: Palmar-plantar erythrodysaesthesia syndrome [2, 9]: 0 n (%)
- TRAE: Paronychia [2, 9]: 0 n (%)
- TRAE: Stomatitis [2, 9]: 7 (9) n (%)
- TRAE: Vision blurred [2, 9]: 1 (1) n (%)
- TRAE: Alopecia [2, 10]: 0 n (%)
- TRAE: Asthenia [2, 10]: 3 (3) n (%)
- TRAE: Decreased appetite [2, 10]: 0 n (%)
- TRAE: Diarrhea [2, 10]: 3 (3) n (%)
- TRAE: Dry eye [2, 10]: 0 n (%)
- TRAE: Dry mouth [2, 10]: 0 n (%)
- TRAE: Dry skin [2, 10]: 0 n (%)
- TRAE: Dysgeusia [2, 10]: 1 (1) n (%)
- TRAE: Fatigue [2, 10]: 1 (1) n (%)
- TRAE: Hyperphosphatemia [2, 10]: 2 (2) n (%)
- TRAE: Lacrimation increased [2, 10]: 0 n (%)
- TRAE: Nail dystrophy [2, 10]: 3 (3) n (%)
- TRAE: Onycholysis [2, 10]: 1 (1) n (%)
- TRAE: Palmar-plantar erythrodysaesthesia syndrome [2, 10]: 4 (4) n (%)
- TRAE: Paronychia [2, 10]: 3 (3) n (%)
- TRAE: Stomatitis [2, 10]: 8 (8) n (%)
- TRAE: Vision blurred [2, 10]: 0 n (%)
- patients discontinued as the result of TRAEs ([2]; across all dose regimens (22 patients)): 11%
- treatment-related deaths ([2]; across all dose regimens, safety population N=207): no treatment-related deaths
- patients reporting grade 4 TRAEs ([2]; across all dose regimens, safety population N=207 (n=1)): 0.5%
- patients reporting grade 3 TRAEs ([2]; across all dose regimens, safety population N=207 (n=69)): 33%
- patients reporting TRAEs ([2]; across all dose regimens, safety population N=207 (n=195)): 94%
- patients reporting retinopathy ([2]; across all dose regimens, grade 2 [n=1] and grade 3 [n=1]): 2 patients
